We go through 16 compounds from patent publication US20260242391A1 (priority 2023, published 2026).

One data set has as its system HL-60. Description: HL-60 differentiation potency. Type of data set: cell-based. The settings on record: Homo sapiens.
The next data set in a line: in vitro. The settings on record: human.

pEC50, pIC50: −log10 of the molar value. Where only a bound is given, the exact number is not on record here.

The term pEC50 denotes the EC50 on a negative log10 scale, so that one unit is a factor of ten. One may read the pIC50 as −log10 of the IC50, conventionally taken in molar units. A low value points to a large IC50. In turn, `C[C@H]1[C@H](NCc2ccccc2)O[C@@H]2O[C@@]3(C)CC[C@H]4[C@H](C)CC[C@@H]1[C@@]24OO3` [Compound 101, (3R,5aS,6R,8aS, 9R,10R,12R, 12aR)-N-benzyl-3,6,9-trimethyldeca-hydro-12H-3,12-epoxy[1,2] dioxepino[4,3-i] isochromen-10-amine] showed a pEC50 in the data set on HL-60 of 6.08. In addition, in the data set “in vitro”, the negative logarithm of the IC50 (pIC50) was 5.88.

Turning to `C[C@H]1[C@H](NCCC(N)=O)O[C@@H]2O[C@@]3(C)CC[C@H]4[C@H](C)CC[C@@H]1[C@@]24OO3` [Compound 96, 3-(((3R,5aS,6R,8aS, 9R,10R,12R, 12aR)-3,6,9-trimethyldeca-hydro-12H-3,12-epoxy[1,2]dioxepino[4,3-i]isochromen-10-yl)amino) propanamide], the pEC50 with HL-60 was 5.77. This compound also gave a pIC50 in the data set “in vitro” of 5.70.

As for `C[C@H]1[C@@H](Oc2ccc(F)c(CC(=O)O)c2)O[C@@H]2O[C@@]3(C)CC[C@H]4[C@H](C)CC[C@@H]1[C@@]24OO3` [Compound 27, 2-(2-fluoro-5-(((3R,5aS,6R, 8aS,9R,10S,12R, 12aR)-3,6,9-trimethyldeca-hydro-12H-3,12-epoxy[1,2]dioxepino[4,3-i]isochromen-10-yl)oxy)phenyl) acetic acid], in the data set with HL-60, the pEC50 is 6.62. This compound gave a pIC50 in the data set “in vitro” of less than 4.70.

In the data set with HL-60, `C[C@H]1[C@@H](Oc2ccc(-c3ccc(C(=O)O)cc3)cc2)O[C@@H]2O[C@@]3(C)CC[C@H]4[C@H](C)CC[C@@H]1[C@@]24OO3` [Compound 107, 4′-(((3R,5aS,6R,8aS, 9R,10S,12R, 12aR)-3,6,9-trimethyldeca-hydro-12H-3,12-epoxy[1,2]dioxepino[4,3-i]isochromen-10-yl)oxy)-[1,1′-biphenyl]-4-carboxylic acid] had a pEC50 of 7.63. The negative logarithm of the IC50 (pIC50) in the data set “in vitro” was 7.40.

`C[C@H]1[C@H](OCc2cc(C(=O)O)ccc2Cl)O[C@@H]2O[C@@]3(C)CC[C@H]4[C@H](C)CC[C@@H]1[C@@]24OO3` [Compound 168, 4-chloro-3-((((3R,5aS,6R,8aS, 9R,10R,12R, 12aR)-3,6,9-trimethyldeca-hydro-12H-3,12-epoxy[1,2]dioxepino[4,3-i]isochromen-10-yl)oxy)methyl) benzoic acid]: the pEC50 in the data set with HL-60 was 7.34. This compound also had a pIC50 in “in vitro” of 5.19.

`C[C@H]1[C@@H](OC(=O)CCC(O)c2ccc(Cl)cc2)O[C@@H]2O[C@@]3(C)CC[C@H]4[C@H](C)CC[C@@H]1[C@@]24OO3` (stereo partly drawn) [Compound 93, (3R,5aS,6R,8aS, 9R,10R,12R, 12aR)-3,6,9-trimethyldeca-hydro-12H-3,12-epoxy[1,2] dioxepino[4,3-i] isochromen-10-yl 4-(4-chlorophenyl)-4-hydroxybutanoate] showed a pEC50 in the data set with HL-60 of 7.10. In addition, the pIC50 in “in vitro” is 7.06.

In the data set on HL-60, `C[C@H]1[C@@H](Oc2ccc(CC(=O)O)cc2Cl)O[C@@H]2O[C@@]3(C)CC[C@H]4[C@H](C)CC[C@@H]1[C@@]24OO3` [Compound 16, 2-(3-chloro-4-(((3R,5aS,6R,8aS, 9R,10S,12R, 12aR)-3,6,9-trimethyldeca-hydro-12H-3,12-epoxy[1,2]dioxepino[4,3-i]isochromen-10-yl)oxy)phenyl) acetic acid] showed a negative logarithm of the EC50 (pEC50) of 7.02. This compound also showed a pIC50 in “in vitro” of less than 5.00.

`C[C@H]1[C@@H](Oc2ccc3c(c2)OC(C(=O)O)C3)O[C@@H]2O[C@@]3(C)CC[C@H]4[C@H](C)CC[C@@H]1[C@@]24OO3` (stereo partly drawn) [Compound 154, 6-(((3R,5aS,6R,8aS, 9R,10S,12R, 12aR)-3,6,9-trimethyldeca-hydro-12H-3,12-epoxy[1,2]dioxepino[4,3-i]isochromen-10-yl)oxy)-2,3-dihydrobenzo-furan-2-carboxylic acid]: the pEC50 in the data set on HL-60 was 7.15. The same compound had a pIC50 in “in vitro” of 5.05.

Consider `C[C@H]1[C@@H](OCC2CCC(F)(F)CC2)O[C@@H]2O[C@@]3(C)CC[C@H]4[C@H](C)CC[C@@H]1[C@@]24OO3` [Compound 106, (3R,5aS,6R,8aS, 9R,10S,12R, 12aR)-10-((4,4-difluorocyclo-hexyl)methoxy)-3,6,9-trimethyldeca-hydro-12H-3,12-epoxy[1,2] dioxepino[4,3-i] isochromene], for which the negative logarithm of the EC50 (pEC50) in the data set on HL-60 was 7.69. In addition, the pIC50 in “in vitro” was 7.00.

In the data set with HL-60, `COc1cc(CO[C@@H]2O[C@@H]3O[C@@]4(C)CC[C@H]5[C@H](C)CC[C@@H]([C@H]2C)[C@@]35OO4)ccc1C(=O)O` [Compound 54, 2-methoxy-4-((((3R,5aS,6R,8aS, 9R,10R,12R, 12aR)-3,6,9-trimethyldeca-hydro-12H-3,12-epoxy[1,2]dioxepino[4,3-i]isochromen-10-yl)oxy)methyl) benzoic acid] gave a negative-log EC50 (pEC50) of 5.55. The compound further gave a negative-log IC50 (pIC50) in “in vitro” of less than 4.70.

In turn, `C[C@H]1[C@@H](OCc2ccnc(C(=O)O)c2)O[C@@H]2O[C@@]3(C)CC[C@H]4[C@H](C)CC[C@@H]1[C@@]24OO3` [Compound 15, 4-((((3R,5aS,6R, 8aS,9R,10S,12R, 12aR)-3,6,9-trimethyldeca-hydro-12H-3,12-epoxy[1,2]dioxepino[4,3-i]isochromen-10-yl)oxy)methyl) picolinic acid] showed a pEC50 in the data set with HL-60 of 7.03. The compound further gave a pIC50 in “in vitro” of 5.59.

Turning to `CNS(=O)(=O)CCN[C@@H]1O[C@@H]2O[C@@]3(C)CC[C@H]4[C@H](C)CC[C@@H]([C@H]1C)[C@@]24OO3` [Compound 97, N-methyl-2-(((3R,5aS,6R,8aS, 9R,10R,12R, 12aR)-3,6,9-trimethyldeca-hydro-12H-3,12-epoxy[1,2]dioxepino[4,3-i]isochromen-10-yl)amino)ethane-1-sulfonamide], the negative logarithm of the EC50 (pEC50) with HL-60 was 5.63. In addition, the pIC50 in “in vitro” was 5.68.

For `C[C@H]1[C@H](OCc2ccc(C(=O)O)o2)O[C@@H]2O[C@@]3(C)CC[C@H]4[C@H](C)CC[C@@H]1[C@@]24OO3` [Compound 61, 5-((((3R,5aS,6R, 8aS,9R,10R,12R, 12aR)-3,6,9-trimethyldeca-hydro-12H-3,12-epoxy[1,2]dioxepino[4,3-i]isochromen-10-yl)oxy)methyl) furan-2-carboxylic acid], the pEC50 in the data set with HL-60 is 4.87. The compound further gave a pIC50 in “in vitro” of less than 4.70.

In the case of `C[C@H]1[C@H](Oc2ccc(C#CC(=O)O)cc2)O[C@@H]2O[C@@]3(C)CC[C@H]4[C@H](C)CC[C@@H]1[C@@]24OO3` [Compound 139, 3-(4-(((3R,5aS,6R,8aS, 9R,10R,12R, 12aR)-3,6,9-trimethyldeca-hydro-12H-3,12-epoxy[1,2]dioxepino[4,3-i]isochromen-10-yl)oxy)phenyl) propiolic acid], in the data set on HL-60, the pEC50 was 7.51. Besides, the pIC50 in the data set “in vitro” is 5.52.

Consider `C[C@H]1[C@@H](OCc2ccc(-c3nn[nH]n3)cc2)O[C@@H]2O[C@@]3(C)CC[C@H]4[C@H](C)CC[C@@H]1[C@@]24OO3` [Compound 38, 5-(4-((((3R,5aS,6R,8aS, 9R,10S,12R, 12aR)-3,6,9-trimethyldeca-hydro-12H-3,12-epoxy[1,2]dioxepino[4,3-i]isochromen-10-yl)oxy)methyl)phenyl)-2H-tetrazole], for which the pEC50 with HL-60 is 6.21. Besides, the pIC50 in the data set “in vitro” is 4.88.

As for `C[C@H]1[C@@H](OCc2ccc(C(=O)O)nc2)O[C@@H]2O[C@@]3(C)CC[C@H]4[C@H](C)CC[C@@H]1[C@@]24OO3` [Compound 13, 5-((((3R,5aS,6R, 8aS,9R,10S,12R, 12aR)-3,6,9-trimethyldeca-hydro-12H-3,12-epoxy[1,2]dioxepino[4,3-i]isochromen-10-yl)oxy)methyl) picolinic acid], in the data set on HL-60, the pEC50 was 7.05. In “in vitro”, this compound showed a negative-log IC50 (pIC50) of 5.85.
